In US20080293583A1, “Methods for diagnosing mood disorders” (Wyeth, priority 2003, published 2008):

Key:
[1] = test system: Ras-related protein RAB-1B; experiment: 2-DE proteome analysis of rat hippocampus: RAB-1B; format: in vivo; settings: rat hippocampus cytosolic extract, 10 mg/kg i.p. daily 14 days, vs control; gel spot 90 (mix)
Description: (§1) Animal dosing. Adult male Sprague Dawley rats weighing 230-320 g were housed with ad libitum access to food and water. After 1 week of habituation, rats were administered either an antidepressant or vehicle alone. The following drugs were administered intraperitoneally (i.p.): fluoxetine (10 mg/kg daily), venlafaxine (10 mg/kg daily) or vehicle alone (1 ml/kg normal saline daily) for 14 days (n=3 rats per group).
(§2) Sample preparation and cytosolic protein extraction. The animals were euthanized and hippocampi were rapidly dissected from the whole brain. Samples from each treatment group were pooled and stored at −85° C. Cytosolic extracts were prepared using the universal extraction kit from Sigma (prot-two) as follows: soluble cytoplasmic extraction reagent (S2688) was added to the hippocampal tissue (10 ml/250 mg wet weight). […]
(§3) Two-dimensional gel electrophoresis. […] Molecular masses were determined by running standard protein markers (Genomic Solutions Inc.), covering the range 10-200 kDa as well as internal verification via landmark proteins within the gel. […]
(§4) Protein fixation, silver staining and 2-D gel comparisons. […] Protein spots were outlined (first automatically and then manually) and quantified using the HT analyzer v2.2 software (Genomic Solutions Inc.). The software calculated the relative spot volume of the proteins compared with the total amount of protein in the gel. […]

[2] = test system: Hippocampal Cholinergic Neurostimulating peptide (PEBP; HCNP; Raf kinase inhibitor protein); experiment: 2-DE proteome analysis of rat hippocampus: HCNP; format: in vivo; settings: rat hippocampus cytosolic extract, 10 mg/kg i.p. daily 14 days, vs control; gel spot 60
Description: as §1, §2, §3, §4

SMILES: CNCCC(Oc1ccc(C(F)(F)F)cc1)c1ccccc1 (stereo not shown) [Fluoxetine, fluoxetine]
- Fold change, Ras-related protein RAB-1B [1]: 1.5 Fold change
- Fold change, Hippocampal Cholinergic Neurostimulating peptide (PEBP; HCNP) [2]: 1.9 Fold change

SMILES: COc1ccc(C(CN(C)C)C2(O)CCCCC2)cc1 (stereo not shown) [Venlafaxine, venlafaxine]
- Fold change, Ras-related protein RAB-1B [1]: 1.5 Fold change
- Fold change, Hippocampal Cholinergic Neurostimulating peptide (PEBP; HCNP) [2]: 2 Fold change
